The test system of one data set is Y79 tumors. The class given is in vivo, mouse. Conditions: systemic drug after intratumoral VCN-01 3×10E^9 vp/tumor; 5 or 15 days (FIGS. 2A-B).
For data set [1], the system named is Y79 cells and primary retinoblastoma cultures. The class given is cell-based.
For data set [2], the system named is E1A, E1B, E2F-1, p53 and cPARP. Briefly: Expression of viral genes and proteins by treatment sequence, Y79 cells. The class given is cell-based. Here is the method: The expression of viral genes E1A and E1B was studied in 6-well culture plates containing 2×10^6 retinoblastoma cells. […] The experiments were controlled by adding culture medium instead of topotecan. […] Real time quantitative polymerase chain reactions (RT-qPCR) were carried out to analyze gene expression using SYBR technology (Thermo Fisher Scientific).
In all experiments, 6-well culture plates containing 2×10^6 cells were used. […] The experiments were controlled by adding culture medium instead of the second treatment. […] The analyses were expanded to other chemotherapeutic agents including hydroxyurea ([…]), etoposide (2 μM), irinotecan (10 μM) or SN-38 (1 μM).
Near-infrared labeled secondary antibodies (Odyssey CLx, LI-COR Inc. Bad Homburg, Germany) were used for detection.

In data set [3] the test system is HSJD-RBT-7 retinoblastoma cells. The data set can be described thus: cells. The class given is cell-based. Conditions: Homo sapiens.
Data set [4] relates to recombinant hyaluronidase PH20 (SPAM1 gene). The data set can be described thus: mRNA expression of recombinant hyaluronidase PH20 (SPAM1) in s.c. retinoblastomas. The class given is in vivo, mouse. As to conditions: 5 days, compared to […] (FIG. 18H). As to the method:
To quantify the recombinant PH20 hyaluronidase gene (SPAM1) in cultures and mouse tissues, the SYBR primer: Forward 5′-TACACACTCCTTGCTCCTGG-3′ (SEQ ID NO: 19), Reverse: 5′-CTTAGTCTCACAGAGGCCAC-3′ (SEQ ID NO: 20) (Bazan-Peregrino et al., “VCN-01 disrupts pancreatic cancer stroma and exerts antitumor effects,” Journal for ImmunoTherapy of Cancer 2021; 9(11):e003254) was used.
To establish s.c. tumors, 10^6 retinoblastoma cells suspended in 25 µL matrigel (Corning, Glendale, AZ, USA) were injected in athymic nude mice. Upon xenograft engraftment (tumor volumes ranging 100-200 mm^3), treatments were started. Mice received VCN-01 (3×10^9 vp in 20 µL vehicle, single intratumoral injection at day 1), alone or combined with one cycle of topotecan (0.6 mg/kg, intraperitoneal -i.p.-, daily at days 1-5), […] (40 mg/kg, i.p, one single dose at day 1), or hydroxyurea (200 mg/kg, i.p., daily at days 1-5). A group of mice received one intratumoral injection of the vehicle of VCN-01 (20 mM pH 8.0 tris buffer, 25 mM NaCl and 2.5% glycerol). Mice were sacrificed at 5 and 15 days after VCN-01 inoculation, the tumors were dissected and tumor homogenates were prepared by adding 10 μL of water per mg of tissue and homogenizing with a Bullet Blender turbine Storm 24 (Quasar instruments, Colorado Springs, CO, USA). In tumor homogenates, genome copies of VCN-01 were quantified. […]

Data set [5] has as its system HSJD-RBT-5 retinoblastoma cells. Briefly: cells. The class given is cell-based. As to conditions: Homo sapiens.
The next data set deals with E2F-1. Briefly: E2F-1 immunostaining in intraocular Y79 tumors. The class given is in vivo, mouse. Conditions: mice with intraocular Y79 tumors, vs untreated (FIG. 17E).
For data set [6], the system named is RBT-7 intracerebral tumors. The data set can be described thus: Brain analyses at end of treatment, CNS-disseminated retinoblastoma. As to conditions: end of treatment (FIG. 22G). The class given is in vivo, mouse.
The conditions of data set [7]: cited from earlier work.
In data set [8] the test system is HSJD-RBVS-10 retinoblastoma cells. The data set can be described thus: cells. Conditions: Homo sapiens. The class given is cell-based.
The next data set relates to E1a. The class given is cell-based.
A further data set deals with CDK6. Briefly: Cell cycle gene expression array, CDK6. The class given is cell-based, human. As to conditions: RBT-7 cells pre-infected with VCN-01; topotecan 2 μM (FIG. 17F). As to the method: To assess the expression of genes involved in the cell cycle, 6-well culture plates containing 2×10^6 retinoblastoma cells were used. VCN-01 was added at 50 MOI for 48 h, followed by the addition of topotecan (2 μM), […] (12.5 μM) or culture medium. The cell pellets were collected 24 h later. The samples were plated in the TaqMan® Array of Human Cyclins & Cell Cycle Regulation (Thermo Fisher Scientific). This array contains 92 assays of cell cycle-associated genes and assays of GAPDH, 18S, HPRT1 and GUSB as endogenous control genes. the threshold cycle (Ct) value ≥35 was established as absence of expression. The mean expression value of the controls was used to normalize gene expression values. The thresholds for upregulation and downregulation were 2^−ΔΔCt≥2.0 and 2^−ΔΔct≤0.5, respectively (Livak and Schmittgen, “Analysis of relative gene expression data using real-time quantitative PCR and the 2 (−Delta Delta C(T)) Method,” Methods 2001; 25(4):402-8).
SYBR primers were CDKN1A (Forward 5′-GGACAGGAGAGGAAGACCATGT-3′ (SEQ ID NO: 15), Reverse 5′-TGGAGTGGTAGAATTCTGTCATGC-3′ (SEQ ID NO: 16) and CDK6 (Forward 5′-CCAGGCAGGCTTTTCATTCA-3′ (SEQ ID NO: 17), Reverse 5′-AGGTCCTGGAAGTATGGGTG-3′ (SEQ ID NO: 18).

Setting [9] is: topotecan pretreatment before VCN-01 (FIG. 13E).
Where [10] appears, read: read-out: IC50, Topotecan single agent.
The mark [11] stands for this setting: read-out: IC50, Topotecan with VCN-01 (10 MOI).

Where two headings read alike, the source gives them in different places.

With `CC[C@@]1(O)C(=O)OCc2c1cc1n(c2=O)Cc2cc3c(CN(C)C)c(O)ccc3nc2-1` [Topotecan, topotecan], the “VCN-01 genome content in tumors” value in the data set on Y79 tumors is recorded as “increases VCN-01 genome content”. Moreover, the “transgene expression, virus first” value in data set [1] (cells pre-infected with AdTLRGDK (FIG. 18E, FIG. 19A)) is on record as “increased transgene expression”. The “viral transduction, drug first” value in data set [1] (drug exposure before viral infection (FIG. 18E)) is “did not enhance viral transduction”. Further, the “E1A expression, VCN-01 first” value in [2] (topotecan addition after the virus (FIG. 13E,F)) was “up to two orders of magnitude”. Besides, the “E1B expression, VCN-01 first” value in [2] (topotecan addition after the virus (FIG. 13G)) is reported as “up to two orders of magnitude”. Further, the “E2F-1 level, topotecan first” value in data set [2] (setting [9]) is “accumulation of E2F-1”. For the same molecule, in data set [2] (setting [9]), the “p53 and cPARP expression, topotecan first” value is “increased expression of proapoptotic proteins p53 and cPARP”. Besides, the “E1A expression (protein and gene), topotecan first” value in [2] (topotecan pretreatment before VCN-01 (FIG. 13E,F)) is “low expression of E1A (protein and gene)”. Moreover, the concentration for half-maximal inhibition (IC50) in data set [3] (setting [10]) amounted to 15.1 nM; in data set [3] (setting [11]), 118 nM; in data set [5] (setting [10]), 87.9 nM; in data set [5] (setting [11]) it was 586 nM; in data set [8] (setting [10]), 29.6 nM; in [8] (setting [11]), 126 nM. For the same molecule, in data set [4], the “expression of recombinant hyaluronidase” value is recorded as “higher expression of recombinant hyaluronidase”. Further, in the data set with E2F-1, the “E2F-1 expression in cancer cells” value is “higher in the animals treated with topotecan”. The “expression of CDKN1A in brain homogenates” value in data set [6] was “highest expression of CDKN1A”. Moreover, the ocular toxicity result in [7] (all routes of administration) was “minimal”. For the same molecule, the “passage to the vitreous” value in data set [7] (given intravenously and intraarterially) is on record as “favorable passage to the vitreous”. Moreover, in the data set with E1a (4 retinoblastoma models, VCN-01 50 MOI, drug added at 24 h, lysis at 48 h (FIG. 1)), the “expression of VCN-01 proteins (E1a)” value is on record as “enhanced expression of VCN-01 proteins”. Besides, the “E1A expression in infected cells” value with E1a (VCN-01 infected cells treated with drug (FIG. 13B, FIG. 15A)) is listed as “highly overexpressed”. In the data set with CDK6, the “decrease in expression of CDK6” value is recorded as 15 fold.

Source of the values: US20260335388A1, “COMBINATION THERAPIES WITH ONCOLYTIC ADENOVIRUS AND TOPOISOMERASE I INHIBITORS OR PRODRUGS THEREOF” (priority 2022, published 2026).
